# From patent US20240124412A1, “IKAROS ZINC FINGER FAMILY DEGRADERS AND USES THEREOF” (Gilead Sciences, Inc., priority 2021, published 2024)
# Key:
# IKZF1 = target: T1, IKZF1 (Homo sapiens, UniProt Q13422+Q96SW2); assay: HiBiT protein tagging assay, in vitro IKZF1 degradation (HEK293); format: cell-based; conditions: HEK293, 18-24 hr incubation, normalized to DMSO control; for Dmax: read-out: IKZF1 Dmax (maximum degradation at the highest concentration tested); for DC50: read-out: IKZF1 EC50
# T1 construct: expressed in transfected cells
# T1 sequence (Q13422 whole entry): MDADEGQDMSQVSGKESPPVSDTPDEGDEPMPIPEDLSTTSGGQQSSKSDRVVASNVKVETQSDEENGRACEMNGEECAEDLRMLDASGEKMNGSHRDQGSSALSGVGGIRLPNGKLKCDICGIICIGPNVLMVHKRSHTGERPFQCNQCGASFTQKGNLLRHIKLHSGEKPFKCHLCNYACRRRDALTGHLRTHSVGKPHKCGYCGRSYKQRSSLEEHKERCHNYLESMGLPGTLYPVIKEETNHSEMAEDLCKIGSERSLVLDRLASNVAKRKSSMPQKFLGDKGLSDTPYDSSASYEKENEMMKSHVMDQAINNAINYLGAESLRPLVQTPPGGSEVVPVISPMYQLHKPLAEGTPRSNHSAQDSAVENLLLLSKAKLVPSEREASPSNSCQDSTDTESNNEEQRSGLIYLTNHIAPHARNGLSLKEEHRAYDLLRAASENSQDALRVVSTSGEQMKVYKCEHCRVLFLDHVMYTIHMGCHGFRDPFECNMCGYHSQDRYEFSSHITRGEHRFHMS
# T1 sequence (Q96SW2 whole entry): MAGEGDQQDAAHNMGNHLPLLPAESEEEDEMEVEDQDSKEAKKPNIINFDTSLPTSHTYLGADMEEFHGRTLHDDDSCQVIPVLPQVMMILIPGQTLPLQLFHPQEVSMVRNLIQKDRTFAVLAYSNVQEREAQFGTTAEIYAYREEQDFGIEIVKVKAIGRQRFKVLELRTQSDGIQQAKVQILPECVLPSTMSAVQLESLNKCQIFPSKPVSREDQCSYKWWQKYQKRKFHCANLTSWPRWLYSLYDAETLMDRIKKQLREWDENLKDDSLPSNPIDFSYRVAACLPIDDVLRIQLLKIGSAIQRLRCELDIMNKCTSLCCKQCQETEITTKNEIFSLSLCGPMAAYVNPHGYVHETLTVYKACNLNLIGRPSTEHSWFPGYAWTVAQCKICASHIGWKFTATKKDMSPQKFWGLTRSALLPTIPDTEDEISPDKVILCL
# T1 sequence (Q16531 whole entry partner): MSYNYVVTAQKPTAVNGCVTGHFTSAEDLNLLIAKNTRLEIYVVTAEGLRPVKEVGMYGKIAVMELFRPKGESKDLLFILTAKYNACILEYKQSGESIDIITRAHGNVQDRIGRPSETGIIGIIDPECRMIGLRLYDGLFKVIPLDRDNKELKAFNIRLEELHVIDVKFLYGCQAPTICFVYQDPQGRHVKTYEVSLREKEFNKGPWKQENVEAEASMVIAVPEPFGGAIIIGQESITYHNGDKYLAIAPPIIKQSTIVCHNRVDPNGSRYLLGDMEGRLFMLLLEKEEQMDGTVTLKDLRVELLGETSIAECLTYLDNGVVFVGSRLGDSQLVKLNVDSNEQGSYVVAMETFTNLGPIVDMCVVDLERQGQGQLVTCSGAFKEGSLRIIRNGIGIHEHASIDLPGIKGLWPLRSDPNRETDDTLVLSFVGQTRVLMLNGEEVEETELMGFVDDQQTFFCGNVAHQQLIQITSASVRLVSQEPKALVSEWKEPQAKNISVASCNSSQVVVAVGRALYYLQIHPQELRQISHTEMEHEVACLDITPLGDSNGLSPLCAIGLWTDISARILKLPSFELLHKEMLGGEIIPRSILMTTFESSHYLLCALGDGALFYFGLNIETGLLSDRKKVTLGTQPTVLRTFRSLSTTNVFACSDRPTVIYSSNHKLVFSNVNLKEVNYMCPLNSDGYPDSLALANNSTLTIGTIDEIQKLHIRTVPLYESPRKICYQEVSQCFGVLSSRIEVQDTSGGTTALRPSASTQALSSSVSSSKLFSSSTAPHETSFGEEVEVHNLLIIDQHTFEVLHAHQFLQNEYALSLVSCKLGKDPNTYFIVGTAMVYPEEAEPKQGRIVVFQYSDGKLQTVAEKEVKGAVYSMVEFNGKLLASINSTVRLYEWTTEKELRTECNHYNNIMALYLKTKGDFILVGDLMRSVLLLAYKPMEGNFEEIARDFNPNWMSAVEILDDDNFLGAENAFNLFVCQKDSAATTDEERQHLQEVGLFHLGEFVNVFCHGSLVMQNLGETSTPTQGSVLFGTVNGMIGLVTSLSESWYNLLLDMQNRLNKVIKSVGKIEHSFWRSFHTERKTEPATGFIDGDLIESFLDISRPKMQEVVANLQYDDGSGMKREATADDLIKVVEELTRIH
# Protocol: (§1) In vitro degradation of IKZF1 and IKZF2 was measured using HiBiT protein tagging and detection technology (Promega).
# (§2) HiBiT technology (Promega) was used to develop the quantitative assays to measure the cellular IKZFs level by tagging an 11 amino acid HiBit peptides VSGWRLFKKIS (SEQ ID NO:1) to the protein of interest. Reporter plasmids were generated by fusing a linker sequence (GSSGGSSG; SEQ ID NO:2) followed by the HiBiT tag at the C terminus of IKZF1 and IKZF2. The fusion fragments were subsequently cloned into pcDNA5 pcDNA™5/FRT/TO plasmids (Thermo Fisher, cat #V652020) downstream of the Tetracycline operator. The resulting plasmids were co-transfected with pOG44 Flp-Recombinase Expression Vector (Thermo Fisher, cat #V600520) into Flp-In™ T-REx HEK293 line (Thermo Fisher, cat #R78077) and a stable cell pool was selected by adding 100 μg/ml of Hygromycin (Thermo Fisher, cat #10687010). The reporter cell enabled Tet-On inducible reporter expression from a single copy of the integrated gene.
# (§3) On Day 1, Cells were grown to ˜80% confluency in TC medium (DMEM Glutamax (Gibco10569), 10% Tet free FBS (Takara 631106), and PenStrep Glutamin (Gibco 10378)) in tissue culture flasks. Doxycycline was then added to a final concentration of 1 μg/ml to induce reporter expression at 37° C. overnight.
# (§4) On Day 2, 125 nL of serially-diluted solution of testing compounds were dispensed into 384-well white solid assay plates via ECHO acoustic liquid handler. Cells were lifted by 0.25% Trypsin (Gibco 25200) then pelleted by centrifugation (Beckman Avanti J-E) at 500×g for 5 min. Cell pellets were resuspended in TC medium at the concentration of 3e5/mL and 25 μL of cell suspension were added into each well of compound-spotted plates. The plates were returned to a 37° C. incubator overnight (18-24 hr).
# (§5) On Day 3, assay plates were removed from the TC incubator and 25 μL of Nano-Glo lytic detection system (Promega, cat #N3030) was added to each well. Plates were incubated at r.t. for 3 min with shaking, and luminescence was read using an Envision reader (Perkin Elmer).
# (§6) All raw data was normalized to DMSO control (final concentration: 0.5%) wells as POC and plotted out for EC50 and Dmax (Maximum degradation at the highest concentration tested in the assay).
# IKZF2 = target: T2, IKZF2 (Homo sapiens, UniProt Q96SW2+Q9UKS7); assay: HiBiT protein tagging assay, in vitro IKZF2 degradation (HEK293); format: cell-based; conditions: HEK293, 18-24 hr incubation, normalized to DMSO control; for Dmax: HEK293, HiBiT assay, read-out: IKZF2 Dmax (maximum degradation at the highest concentration tested); for DC50: HiBiT assay, read-out: IKZF2 EC50
# T2 construct: expressed in transfected cells
# T2 sequence (Q9UKS7 1-500 isoform Q9UKS7-2): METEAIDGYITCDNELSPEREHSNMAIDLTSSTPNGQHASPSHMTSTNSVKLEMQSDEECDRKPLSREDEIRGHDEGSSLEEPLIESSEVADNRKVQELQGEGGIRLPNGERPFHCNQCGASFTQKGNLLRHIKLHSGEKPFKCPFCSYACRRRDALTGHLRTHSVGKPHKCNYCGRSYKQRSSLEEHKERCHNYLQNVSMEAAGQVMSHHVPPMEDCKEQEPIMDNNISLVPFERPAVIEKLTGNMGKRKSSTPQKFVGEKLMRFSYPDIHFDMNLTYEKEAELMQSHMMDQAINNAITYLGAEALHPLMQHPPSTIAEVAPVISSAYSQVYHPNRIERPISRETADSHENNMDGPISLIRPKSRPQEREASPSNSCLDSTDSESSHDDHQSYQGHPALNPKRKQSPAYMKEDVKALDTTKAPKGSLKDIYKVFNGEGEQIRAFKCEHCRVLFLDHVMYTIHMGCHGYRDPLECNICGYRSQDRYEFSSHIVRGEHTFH
# T2 sequence (Q96SW2 whole entry): as the sequence (Q96SW2 whole entry) above
# T2 sequence (Q16531 whole entry partner): as the sequence (Q16531 whole entry partner) above
# Protocol: as §1, §2, §3, §4, §5, §6
SMILES,Dmax (IKZF1),DC50 (IKZF1),Dmax (IKZF2),DC50 (IKZF2)
"O=C1CCC(N2Cc3cc(CN[C@H]4CCOc5ccccc54)ccc3C2=O)C(=O)N1 (stereo partly drawn) [Example 17, 3-(5-((((S)-chroman-4-yl)amino)methyl)-1-oxoisoindolin-2-yl)piperidine-2,6-dione]",65%,31 nM,48%,230 nM
"O=C1CCC(N2Cc3cc(CN[C@@H]4CCCN(Cc5ccccc5)C4)ccc3C2=O)C(=O)N1 (stereo partly drawn) [Example 20, 3-(5-((((R)-1-benzylpiperidin-3-yl)amino)methyl)-1-oxoisoindolin-2-yl)piperidine-2,6-dione]",95%,7 nM,97%,32 nM
"C[C@@H](NCc1ccc2c(c1)CN(C1CCC(=O)NC1=O)C2=O)c1ccccc1 (stereo partly drawn) [Example 16, 3-(1-oxo-5-((((R)-1-phenylethyl)amino)methyl)isoindolin-2-yl)piperidine-2,6-dione]",71%,41 nM,54%,260 nM
"O=C1CCC(N2Cc3cc(CN[C@@H]4C[C@@H]5CC[C@H]4C5)ccc3C2=O)C(=O)N1 (stereo partly drawn) [Example 71, 3-(5-((((1S,2R,4R)-bicyclo[2.2.1]heptan-2-yl)amino)methyl)-1-oxoisoindolin-2-yl)piperidine-2,6-dione]",33%,170 nM,36%,297 nM
N#C[C@H]1CC[C@@H](NCc2ccc3c(c2)CN(C2CCC(=O)NC2=O)C3=O)CC1 (stereo partly drawn) [Example 87],86%,84 nM,89%,182 nM
O=C1CCC(N2Cc3cc(CN[C@H]4C[C@H]5CC[C@@H]4C5)ccc3C2=O)C(=O)N1 (stereo partly drawn) [Example 72],–,> 10000 nM,23%,389 nM
"O=C1CCC(N2Cc3cc(CN[C@@H]4CCCN(C(=O)c5ccccc5)C4)ccc3C2=O)C(=O)N1 (stereo partly drawn) [Example 24, 3-(5-((((R)-1-benzoylpiperidin-3-yl)amino)methyl)-1-oxoisoindolin-2-yl)piperidine-2,6-dione]",36%,871 nM,62%,2000 nM
"O=C1CCC(N2Cc3cc(CN[C@@H]4CCCC[C@H]4CO)ccc3C2=O)C(=O)N1 (stereo partly drawn) [Example 73, 3-(5-((((1R,2R)-2-(hydroxymethyl)cyclohexyl)amino)methyl)-1-oxoisoindolin-2-yl)piperidine-2,6-dione]",34%,5800 nM,31%,1200 nM
O=C1CCC(N2Cc3cc(CNCc4cc5ccccc5[nH]4)ccc3C2=O)C(=O)N1 (stereo not drawn) [Example 64],80%,61 nM,45%,276 nM
O=C1CCC(N2Cc3cc(CN[C@H]4C[C@@H](O)C4)ccc3C2=O)C(=O)N1 (stereo partly drawn) [Example 54],28%,367 nM,33%,2800 nM
"O=C1CCC(N2Cc3cc(CN[C@H]4CCCN(Cc5ccccc5)C4)ccc3C2=O)C(=O)N1 (stereo partly drawn) [Example 21, 3-(5-((((S)-1-benzylpiperidin-3-yl)amino)methyl)-1-oxoisoindolin-2-yl)piperidine-2,6-dione]",79%,56 nM,72%,261 nM
"O=C1CCC(N2Cc3cc(CNC4CCN(c5ccccn5)CC4)ccc3C2=O)C(=O)N1 (stereo not drawn) [Example 35, 3-(1-oxo-5-(((1-(pyridin-2-yl)piperidin-4-yl)amino)methyl)isoindolin-2-yl)piperidine-2,6-dione]",85%,28 nM,88%,111 nM
"O=C1CCC(N2Cc3cc(CN[C@H]4CCN(Cc5ccccc5)C4)ccc3C2=O)C(=O)N1 (stereo partly drawn) [Example 19, 3-(5-((((S)-1-benzylpyrrolidin-3-yl)amino)methyl)-1-oxoisoindolin-2-yl)piperidine-2,6-dione]",46%,122 nM,52%,442 nM
CO[C@H]1CC[C@@H](NCc2ccc3c(c2)CN(C2CCC(=O)NC2=O)C3=O)CC1 (stereo partly drawn) [Example 86],73%,70 nM,83%,123 nM
O=C1CCC(N2Cc3cc(CNC4CCC(Cc5ccccc5)C4)ccc3C2=O)C(=O)N1 (stereo not drawn) [Example 69],57%,66 nM,68%,113 nM
O=C1CCC(N2Cc3cc(CN[C@@H]4C[C@H](F)CN(Cc5ccccc5)C4)ccc3C2=O)C(=O)N1 (stereo partly drawn) [Example 45],93%,30 nM,84%,182 nM

# Other lines, results leading:
Dmax (IKZF1),DC50 (IKZF1),Dmax (IKZF2),DC50 (IKZF2),SMILES
49%,216 nM,88%,198 nM,CC1(C)C[C@]2(CC[C@H](NCc3ccc4c(c3)CN(C3CCC(=O)NC3=O)C4=O)CC2)CO1 (stereo partly drawn) [Example 117]
28%,155 nM,87%,87 nM,CC1CCC(C)(NCc2ccc3c(c2)CN(C2CCC(=O)NC2=O)C3=O)CC1 (stereo not drawn) [Example 147]
27%,96 nM,95%,49 nM,CC1(NCc2ccc3c(c2)CN(C2CCC(=O)NC2=O)C3=O)CCCCC1 (stereo not drawn) [Example 113]
60%,55 nM,86%,61 nM,CC1(C)CCC(NCc2ccc3c(c2)CN(C2CCC(=O)NC2=O)C3=O)CC1 (stereo not drawn) [Example 140]
58%,146 nM,84%,97 nM,O=C1CCC(N2Cc3cc(CNC4CCCC5(CC5)C4)ccc3C2=O)C(=O)N1 (stereo not drawn) [Example 132]
29%,252 nM,59%,26 nM,"N#CC1CCCC(NCc2ccc3c(c2)CN(C2CCC(=O)NC2=O)C3=O)C1 (stereo not drawn) [Example 93, (1,3-trans)-3-(((2-(2,6-dioxopiperidin-3-yl)-1-oxoisoindolin-5-yl)methyl)amino)cyclohexane-1-carbonitrile]"
63%,116 nM,73%,333 nM,O=C1CCC(N2Cc3cc(CN[C@H]4CCC[C@@H](Nc5ccccc5)C4)ccc3C2=O)C(=O)N1 (stereo partly drawn) [Example 91]
62%,52 nM,78%,68 nM,"O=C1CCC(N2Cc3cc(CNC4CCC5(CCc6ccccc65)CC4)ccc3C2=O)C(=O)N1 (stereo not drawn) [Example 114, 3-(5-(((2′,3′-dihydrospiro[cyclohexane-1,1′-inden]-4-yl)amino)methyl)-1-oxoisoindolin-2-yl)piperidine-2,6-dione]"
64%,297 nM,91%,296 nM,O=C1CCC(N2Cc3cc(CNC4CCC5(CCOCC5)CC4)ccc3C2=O)C(=O)N1 (stereo not drawn) [Example 88]
–,> 10000 nM,49%,361 nM,"O=C1CCC(N2Cc3cc(CN[C@H]4CC5CCC4CC5)ccc3C2=O)C(=O)N1 (stereo partly drawn) [Example 95, 3-(5-((((S)-bicyclo[2.2.2]octan-2-yl)amino)methyl)-1-oxoisoindolin-2-yl)piperidine-2,6-dione]"
53%,151 nM,93%,79 nM,O=C1CCC(N2Cc3cc(CN[C@@H]4CCCC[C@H]4OCc4ccccc4)ccc3C2=O)C(=O)N1 (stereo partly drawn) [Example 126]
–,> 10000 nM,55%,178 nM,"O=C1CCC(N2Cc3cc(CN[C@@H]4CC5CCC4CC5)ccc3C2=O)C(=O)N1 (stereo partly drawn) [Example 94, 3-(5-((((R)-bicyclo[2.2.2]octan-2-yl)amino)methyl)-1-oxoisoindolin-2-yl)piperidine-2,6-dione]"
38%,158 nM,28%,265 nM,CO[C@H]1CCCC[C@H]1NCc1ccc2c(c1)CN(C1CCC(=O)NC1=O)C2=O (stereo partly drawn) [Example 107]
–,> 1000 nM,35%,115 nM,CC[C@@H]1CCCC[C@H]1NCc1ccc2c(c1)CN(C1CCC(=O)NC1=O)C2=O (stereo partly drawn) [Example 149]
51%,185 nM,72%,273 nM,O=C1CCC(N2Cc3cc(CNC4CCCC5(CCCC5)C4)ccc3C2=O)C(=O)N1 (stereo not drawn) [Example 133]
